# ChEMBL document CHEMBL1201862, “PubChem BioAssay data set” (2004)
# Activity calls are given as the source filed them.
# Experiments:
# Cytochrome P450 2C9 = Cytochrome P450 2C9 (Homo sapiens, UniProt P11712)
# [1] = biological target: T1, Alkaline phosphatase, tissue-nonspecific isozyme (Homo sapiens, UniProt P05186); test: human TNAP enzyme inhibitors, SAR follow-up, biochemical, luminescent, dose response (AID 1056)
# T1 sequence (P05186 whole entry): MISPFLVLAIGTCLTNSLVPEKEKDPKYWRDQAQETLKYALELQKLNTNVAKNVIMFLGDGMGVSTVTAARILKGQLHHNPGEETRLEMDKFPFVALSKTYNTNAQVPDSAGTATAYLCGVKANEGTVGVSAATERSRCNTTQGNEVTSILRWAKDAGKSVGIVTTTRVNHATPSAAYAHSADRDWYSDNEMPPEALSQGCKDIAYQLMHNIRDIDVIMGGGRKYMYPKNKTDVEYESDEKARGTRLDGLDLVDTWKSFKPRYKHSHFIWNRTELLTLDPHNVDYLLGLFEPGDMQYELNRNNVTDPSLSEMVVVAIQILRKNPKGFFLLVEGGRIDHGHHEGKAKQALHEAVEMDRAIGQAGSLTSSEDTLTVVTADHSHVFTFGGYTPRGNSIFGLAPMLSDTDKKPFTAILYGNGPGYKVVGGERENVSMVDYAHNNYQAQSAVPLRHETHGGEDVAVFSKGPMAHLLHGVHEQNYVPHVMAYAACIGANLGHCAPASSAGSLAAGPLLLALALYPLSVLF
# [2] = biological target: Glyceraldehyde-3-phosphate dehydrogenase (Homo sapiens, UniProt P04406)
# [3] = biological target: T2, Tyrosine-protein phosphatase non-receptor type 22 (Homo sapiens, UniProt Q9Y2R2); format: functional
# T2 sequence (Q9Y2R2 whole entry): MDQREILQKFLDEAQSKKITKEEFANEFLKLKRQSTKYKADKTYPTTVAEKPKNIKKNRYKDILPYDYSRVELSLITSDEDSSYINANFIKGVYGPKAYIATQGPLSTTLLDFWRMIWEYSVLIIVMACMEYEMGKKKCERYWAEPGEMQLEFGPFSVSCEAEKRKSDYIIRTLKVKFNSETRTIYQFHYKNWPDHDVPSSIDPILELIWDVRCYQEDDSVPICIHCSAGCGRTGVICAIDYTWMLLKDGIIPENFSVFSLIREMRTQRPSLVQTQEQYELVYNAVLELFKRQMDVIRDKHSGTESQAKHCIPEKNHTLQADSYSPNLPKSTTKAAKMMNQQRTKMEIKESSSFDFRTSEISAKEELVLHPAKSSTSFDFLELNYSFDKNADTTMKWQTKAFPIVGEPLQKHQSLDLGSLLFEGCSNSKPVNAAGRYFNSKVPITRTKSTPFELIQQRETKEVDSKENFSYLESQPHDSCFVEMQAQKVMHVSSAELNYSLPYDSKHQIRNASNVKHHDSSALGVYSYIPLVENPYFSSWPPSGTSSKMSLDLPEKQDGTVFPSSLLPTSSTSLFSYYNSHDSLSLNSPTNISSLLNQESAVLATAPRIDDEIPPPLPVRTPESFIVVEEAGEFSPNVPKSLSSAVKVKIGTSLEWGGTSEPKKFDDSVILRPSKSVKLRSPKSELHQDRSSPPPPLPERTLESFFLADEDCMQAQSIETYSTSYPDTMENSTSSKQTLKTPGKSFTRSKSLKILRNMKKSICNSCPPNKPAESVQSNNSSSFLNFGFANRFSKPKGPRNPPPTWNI
# [4] = biological target: T3, Tyrosine-protein phosphatase non-receptor type 7 (Homo sapiens, UniProt P35236); format: functional
# T3 sequence (P35236 whole entry): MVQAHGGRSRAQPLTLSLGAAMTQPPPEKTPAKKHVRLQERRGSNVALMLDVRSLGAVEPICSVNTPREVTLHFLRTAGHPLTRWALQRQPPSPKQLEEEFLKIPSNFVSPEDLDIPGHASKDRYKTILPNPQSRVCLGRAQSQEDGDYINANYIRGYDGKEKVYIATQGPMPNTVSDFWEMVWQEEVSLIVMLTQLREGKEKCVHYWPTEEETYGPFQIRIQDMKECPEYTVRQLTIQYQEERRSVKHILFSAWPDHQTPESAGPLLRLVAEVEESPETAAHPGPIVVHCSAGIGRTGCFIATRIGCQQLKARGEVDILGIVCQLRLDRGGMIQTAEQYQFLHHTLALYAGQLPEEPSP
# [5] = biological target: T2, Tyrosine-protein phosphatase non-receptor type 22; format: functional; remark: listed apart in the source
# [6] = THP-1 cell cytotoxicity, dose response, cytotoxicity control for non-replicating M. tuberculosis project (AID 489025); format: functional
# [7] = Vero E6 cell cytotoxicity, dose response, cytotoxicity control for non-replicating M. tuberculosis project, secondary assay (AID 492998); format: functional, VeroE6; settings: Vero C1008
# [8] = biological target: T4, Replicative DNA helicase DnaB (Mycobacterium tuberculosis, UniProt P9WMR3); test: DnaB intein splicing inhibitors, dose response, biochemical, cell-free fluorescence (AID 449749); format: functional
# T4 sequence (P9WMR3 whole entry): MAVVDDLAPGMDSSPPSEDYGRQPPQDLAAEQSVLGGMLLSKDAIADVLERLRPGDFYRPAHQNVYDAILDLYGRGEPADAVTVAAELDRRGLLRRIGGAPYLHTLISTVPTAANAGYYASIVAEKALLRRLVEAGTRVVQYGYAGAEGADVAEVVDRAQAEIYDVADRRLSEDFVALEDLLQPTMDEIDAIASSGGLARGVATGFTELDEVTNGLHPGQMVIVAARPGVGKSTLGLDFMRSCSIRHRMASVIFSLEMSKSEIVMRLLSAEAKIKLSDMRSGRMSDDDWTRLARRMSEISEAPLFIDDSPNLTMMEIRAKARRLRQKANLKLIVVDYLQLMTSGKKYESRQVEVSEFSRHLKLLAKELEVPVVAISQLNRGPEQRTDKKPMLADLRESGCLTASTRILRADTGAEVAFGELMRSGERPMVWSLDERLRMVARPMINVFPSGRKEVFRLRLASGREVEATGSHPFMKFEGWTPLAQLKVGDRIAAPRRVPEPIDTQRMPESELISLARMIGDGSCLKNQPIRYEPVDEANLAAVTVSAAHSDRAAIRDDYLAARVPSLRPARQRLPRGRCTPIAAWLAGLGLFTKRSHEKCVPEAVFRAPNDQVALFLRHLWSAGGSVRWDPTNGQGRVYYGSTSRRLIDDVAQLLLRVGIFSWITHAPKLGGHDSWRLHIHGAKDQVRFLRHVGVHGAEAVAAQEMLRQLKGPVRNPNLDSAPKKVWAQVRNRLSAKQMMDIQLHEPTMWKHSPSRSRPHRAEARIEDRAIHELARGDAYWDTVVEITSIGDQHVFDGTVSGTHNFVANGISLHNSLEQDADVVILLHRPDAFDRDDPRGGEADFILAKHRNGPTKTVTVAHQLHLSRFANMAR
# cells = format: functional
# [9] = HepG2 cell cytotoxicity, dose response, cytotoxicity control for non-replicating M. tuberculosis project (AID 489018); format: functional; settings: Mycobacterium tuberculosis
# Protein RecA = biological target: T5, Protein RecA (Mycobacterium tuberculosis, UniProt P9WHJ3); test: Fluorescence Cell-Free Homogeneous Dose Retest to Identify Inhibitors of RecA-Intein Splicing Activity. [Related pubchem assays (depositor defined):AID2097, AID2223, AID489010, AID492950]; format: functional
# T5 sequence (P9WHJ3 whole entry): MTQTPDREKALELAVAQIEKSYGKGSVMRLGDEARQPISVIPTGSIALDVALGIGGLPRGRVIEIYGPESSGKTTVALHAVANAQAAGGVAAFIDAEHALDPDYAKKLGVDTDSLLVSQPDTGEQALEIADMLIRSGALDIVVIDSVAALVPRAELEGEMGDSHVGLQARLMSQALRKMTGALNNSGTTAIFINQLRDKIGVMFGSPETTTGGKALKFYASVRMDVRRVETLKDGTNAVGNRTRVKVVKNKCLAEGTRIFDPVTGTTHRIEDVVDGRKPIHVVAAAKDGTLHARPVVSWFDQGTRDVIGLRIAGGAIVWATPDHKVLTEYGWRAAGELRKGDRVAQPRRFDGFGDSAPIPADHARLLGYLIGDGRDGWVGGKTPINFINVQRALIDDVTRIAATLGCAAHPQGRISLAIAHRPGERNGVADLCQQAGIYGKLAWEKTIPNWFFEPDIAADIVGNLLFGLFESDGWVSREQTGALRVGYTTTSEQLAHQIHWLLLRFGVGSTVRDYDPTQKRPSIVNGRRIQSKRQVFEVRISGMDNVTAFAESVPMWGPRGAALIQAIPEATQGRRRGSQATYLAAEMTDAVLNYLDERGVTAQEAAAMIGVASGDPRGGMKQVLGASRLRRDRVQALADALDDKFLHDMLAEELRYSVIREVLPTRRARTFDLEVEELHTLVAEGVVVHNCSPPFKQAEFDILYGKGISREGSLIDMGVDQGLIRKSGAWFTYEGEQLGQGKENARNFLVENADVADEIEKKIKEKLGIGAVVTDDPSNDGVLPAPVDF
# [10] = inhibitors of intracellular T. cruzi replication, confirmation, NIH3T3 host cells, beta-gal luminescence (AID 2044); format: functional, cell-based;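 note: intracellular parasites grown in NIH/3T3 mouse fibroblasts as host cells; luminescent beta-galactosidase reporter signal from transgenic T. cruzi replicating inside host cells; inhibitors lower the luminescence signal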
# [11] = cytotoxicity in MIN6 insulinoma cells, dose response, cytotoxicity control, cell-based, mouse insulinoma (AID 2122); format: functional;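 note: confirmatory high-throughput counterscreen run to flag cytotoxic compounds; mouse MIN-6 beta cells carrying an insulin promoter eGFP reporter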
# [12] = cytotoxicity toward NIH3T3 fibroblasts, dose response, counter-screen, cell-based, ATP luminescence, mouse fibroblasts (AID 2010); format: functional;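 note: cells exposed to compound for about 90 hours before reading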
# [13] = insulin promoter down-regulators in MIN6 cells, imaging, high-content screening, mouse beta cells (AID 1628); format: functional
# [14] = Luminescence Cell-Based Dose Response HTS to Identify Inhibitors of 5'UTR Stem-Loop Driven Prion Protein mRNA Translation in H4 Neuroglioblastoma Cells. [Related pubchem assays: 1827 (Project Summary), 1813 (Primary HTS)]; format: functional
# INS1 = test: beta cell apoptosis inhibitors, cytokine rescue, dose response, luminescence, retest (AID 449756); format: functional, cell-based; settings: Rattus norvegicus;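 note: cell death triggered by IL-1 beta plus TNF-alpha plus IFN-gamma mixture; protective hits raise ATP signal compared with cytokine alone wells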
# HEK293 [15] = test: cells; format: functional, cell-based; settings: Homo sapiens
# [16] = inhibitors of firefly luciferase expression or activity, dose response, H4 neuroglioma cells, luminescence (AID 1990); format: functional, cell-based
# HEK293 [17] = test: NOD2 signaling inhibitors in MDP-stimulated cells, cell-based, uHTS, luminescence (AID 2001); format: functional; settings: Homo sapiens
# [18] = inhibitors of SNCA 5'UTR-driven reporter translation, confirmation, H4 neuroglioma cells, luminescence (AID 1988); format: functional, cell-based
# HEK293 [19] = test: cells; format: functional, cell-based; settings: Homo sapiens; remark: listed apart in the source
# HEK293 [20] = test: NOD1 signaling inhibitors, primary screen, cell-based, luminescence, uHTS (AID 1578); format: functional; settings: Homo sapiens
# [21] = HEp-2 cell cytotoxicity, dose response, cytotoxicity control for RSV inhibitor project, HTS (AID 2410); format: functional; settings: human respiratory syncytial virus
# Vero [22] = test: cells; format: functional; settings: Chlorocebus sabaeus
# Vero [23] = test: cells; format: functional, cell-based; settings: Chlorocebus sabaeus
# Sequence of Glyceraldehyde-3-phosphate dehydrogenase (P04406 whole entry): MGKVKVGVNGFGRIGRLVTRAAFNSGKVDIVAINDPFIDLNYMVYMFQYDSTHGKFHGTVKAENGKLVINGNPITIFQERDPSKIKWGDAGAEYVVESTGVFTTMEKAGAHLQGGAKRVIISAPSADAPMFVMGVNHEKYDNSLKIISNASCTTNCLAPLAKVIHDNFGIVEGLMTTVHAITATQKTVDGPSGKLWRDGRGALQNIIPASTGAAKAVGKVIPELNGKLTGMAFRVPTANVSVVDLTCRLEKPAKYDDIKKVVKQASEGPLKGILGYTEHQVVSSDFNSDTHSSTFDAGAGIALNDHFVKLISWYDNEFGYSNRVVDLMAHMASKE
# Sequence of Cytochrome P450 2C9 (P11712 whole entry): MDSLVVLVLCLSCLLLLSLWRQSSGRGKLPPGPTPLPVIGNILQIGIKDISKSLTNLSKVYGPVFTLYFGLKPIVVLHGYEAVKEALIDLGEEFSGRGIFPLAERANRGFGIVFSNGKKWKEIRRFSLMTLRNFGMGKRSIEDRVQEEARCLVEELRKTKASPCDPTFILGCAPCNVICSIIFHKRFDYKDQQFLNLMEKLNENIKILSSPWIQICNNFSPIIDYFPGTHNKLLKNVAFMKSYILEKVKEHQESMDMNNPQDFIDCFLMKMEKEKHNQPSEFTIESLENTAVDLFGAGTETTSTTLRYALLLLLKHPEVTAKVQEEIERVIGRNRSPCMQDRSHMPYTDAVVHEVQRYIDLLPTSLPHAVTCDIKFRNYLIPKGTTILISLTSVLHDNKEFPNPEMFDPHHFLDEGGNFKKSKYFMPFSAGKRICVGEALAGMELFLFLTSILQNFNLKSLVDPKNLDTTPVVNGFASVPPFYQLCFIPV
smiles,measurement,setting,value
O=C(Nc1cccc2ccccc12)c1cn(-c2ccccc2)nc1-c1cccs1,AC50,Cytochrome P450 2C9,inconclusive
CCCCOc1ccc(-c2cc(C(=O)OC)[nH]n2)cc1,IC50,[1],0.912 µM (active)
same,IC50,[2],> 100 µM (not active)
COc1ccccc1N1CCN(C(=O)C2CCN(C(=O)c3ccccc3Cl)CC2)CC1,IC50,[3],> 79.4 µM (inactive)
same,IC50,[4],> 79.4 µM (inactive)
same,IC50,[5],> 79.4 µM (inactive)
Cn1cnc([N+](=O)[O-])c1S(=O)(=O)c1cccc(Cl)c1,CC50,[6],15.5 µM (active)
same,CC50,[7],8.33 µM (active)
same,AC50,[8],27.7 µM (active)
same,IC50,cells,5.88 µM (active)
same,CC50,[9],13 µM (active)
same,EC50,Protein RecA,15.8 µM (active)
Cc1cc(C)n(-c2nc(NCCC(C)C)c3c4c(sc3n2)COC(C)(C)C4)n1,EC50,[10],1.64 µM (active)
same,IC50,[11],2.26 µM (active)
same,EC50,[12],> 60 µM (not active)
same,IC50,[13],3.09 µM (active)
COC(=O)c1cc(-c2cc(F)c(F)cc2F)n[nH]1,IC50,[1],1.07 µM (active)
same,IC50,[2],> 10 µM (inconclusive)
CC(C)CCNC(=O)c1ccc2c(Cl)c3c(nc2c1)CCC3,IC50,[3],> 79.4 µM (inactive)
same,IC50,[4],> 79.4 µM (inactive)
same,IC50,[5],> 79.4 µM (inactive)
O=C(Cc1cccs1)N1CCN(c2ccc([N+](=O)[O-])cc2)CC1,IC50,[3],> 79.4 µM (inactive)
same,IC50,[4],> 79.4 µM (inactive)
same,IC50,[5],> 79.4 µM (inactive)
Cc1ccccc1Cn1c(=N)n(CC(=O)c2ccco2)c2ccccc21,IC50,[11],7.02 µM (active)
same,IC50,[13],3.99 µM (active)
O=C(N/N=C/c1cc(Br)c(Br)s1)c1ccncc1,CC50,[6],6.79 µM (active)
same,CC50,[7],7.99 µM (active)
same,EC50,[14],16.8 µM (active)
same,AC50,INS1,3.31 µM (active)
same,IC50,HEK293 [15],> 20 µM (inactive)
same,EC50,[16],> 120 µM (not active)
same,IC50,cells,2.64 µM (active)
same,IC50,HEK293 [17],17.9 µM (inactive)
same,CC50,[9],16.7 µM (active)
same,EC50,[18],9.58 µM (active)
same,IC50,HEK293 [19],2.13 µM (active)
same,EC50,HEK293 [20],> 20 µM (inactive)
CCOc1ccccc1-c1cc(C(=O)N/N=C/c2ccc(O)c(OC)c2)c2ccccc2n1,IC50,[3],> 79.4 µM (inactive)
same,CC50,[21],26.7 µM (active)
same,CC50,Vero [22],> 25 µM (active)
same,IC50,Vero [23],> 25 µM (active)
same,IC50,[4],> 79.4 µM (inactive)
same,IC50,[5],> 79.4 µM (inactive)
